Our source for the GI50 and TGI values is PubChem BioAssay (NCI).

The structures appear in SMILES notation.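 Briefly, cells in 96-well plates were exposed to five compound concentrations for 48 h, and endpoints were estimated by linear interpolation. GI50 marks 50% less growth. Definition used: TGI = concentration required for complete inhibition of growth.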

What all share (assay): inhibition of tumour cell growth, NCI panel, 48 h
The test system of assay [1] is SN12C renal.
The test system of assay [2] is NCI/ADR-RES ovarian.
Assay [3] deals with NCI-H460 lung.
The subject of assay [4] is SNB-19 CNS.
Assay [5] has as its system OVCAR-4 ovarian.
For assay [6], the system named is SF-539 CNS.
For assay [7], the system named is RPMI-8226 leukemia.
For assay [8], the system named is HS 578T breast.

Take `Cc1c(Cl)cccc1NC(=O)c1sc2nc3c(cc2c1N)CCCCCC3`: the GI50 is 0.408 µM in assay [1]; 0.164 µM in assay [2]; 0.187 µM in assay [3]; 0.258 µM in assay [4]; 0.936 µM in assay [5]; 0.168 µM in assay [6]. In addition, the GI50 in assay [7] is 0.166 µM; in assay [8], 0.204 µM. In addition, the TGI was > 50 µM in assay [1]; 15.7 µM in assay [2]; > 50 µM in assay [3]; 28.5 µM in assay [4]; 15.2 µM in assay [5]; 7.93 µM in assay [6]. Also, the values for the TGI in assay [7] and in assay [8] were > 50 µM and 22.9 µM, respectively.

For `O=C(CNC(=O)c1cccc2ccccc12)Nc1ccccc1Oc1ccccc1`, the GI50 is 0.583 µM in assay [1]; 0.239 µM in assay [2]; 0.333 µM in assay [3]; 0.461 µM in assay [4]; 4.54 µM in assay [5]; 0.237 µM in assay [6]. Besides, the GI50 in assay [7] was 0.318 µM; in assay [8], 0.363 µM. The TGI was > 10 µM in assay [1]; > 10 µM in assay [2]; > 10 µM in assay [3]; > 10 µM in assay [4]; > 10 µM in assay [5]; 0.695 µM in assay [6]. Besides, the TGI in assay [7] and in assay [8] was > 10 µM throughout.

Consider `CN(/N=N/c1nc(OCc2ccccc2)c2[nH]cnc2n1)C(=O)N(C)/N=N/c1nc(OCc2ccccc2)c2[nH]cnc2n1`, for which the GI50 in assay [1] is 56.6 µM; in assay [2], 47.2 µM; in assay [3] it was 26.1 µM; in assay [4] it was > 100 µM; in assay [5], > 100 µM; in assay [6], 38.4 µM. For the same compound, the results for the GI50 in assay [7] and in assay [8] were 38.1 µM and 25.5 µM, respectively. In addition, the TGI in assay [1], in assay [2], in assay [3], in assay [4], in assay [5] and in assay [6] was > 100 µM each time. Also, the TGI was > 100 µM in assay [7] and 85.3 µM in assay [8].

`CCOc1cc2ncc(C#N)c(Nc3ccc(F)c(Cl)c3)c2cc1NC(=O)/C=C/CN(C)C`: the GI50 was 0.173 µM in assay [1]; 0.679 µM in assay [2]; 0.655 µM in assay [3]; 1.61 µM in assay [4]; 0.235 µM in assay [5]; 0.826 µM in assay [6]. In addition, the values for the GI50 in assay [7] and in assay [8] were 1.04 µM and 0.381 µM, respectively. Besides, the TGI is > 6.03 µM in assay [1]; > 10 µM in assay [2]; 4.26 µM in assay [3]; > 10 µM in assay [4]; 4.1 µM in assay [5]; 2.31 µM in assay [6]. Besides, the TGI in assay [7] is 3.33 µM; in assay [8], > 10 µM.

Take `N#CSCC1CC(O)(c2ccccc2)C(c2ccccc2)C(c2ccc(F)cc2)O1` (stereo not drawn): the GI50 in assay [1] is 2.05 µM; in assay [2], 3.13 µM; in assay [3], 4.53 µM; in assay [4], 19 µM; in assay [5], 2.84 µM; in assay [6], 3.15 µM. For the same compound, the GI50 was 1.67 µM in assay [7] and 3.18 µM in assay [8]. The TGI in assay [1] is 5.27 µM; in assay [2], 11.9 µM; in assay [3], 18.1 µM; in assay [4], > 70.3 µM; in assay [5], 10.9 µM; in assay [6], 7.69 µM. The TGI stood at 7.03 µM in assay [7] and 12.9 µM in assay [8].

With `Cc1nc(Nc2ccc(F)c(Cl)c2)sc1C(=O)O`, the GI50 was 1.53 µM in assay [1]; 1.78 µM in assay [2]; 2.07 µM in assay [3]; 1.93 µM in assay [4]; 1.74 µM in assay [5]; 1.58 µM in assay [6]. Moreover, the GI50 in assay [7] was 2.16 µM; in assay [8] it was 1.87 µM. Further, the TGI in assay [1] was found to be 3.56 µM; in assay [2], 4.7 µM; in assay [3], 4.74 µM; in assay [4], 5.22 µM; in assay [5], 9.12 µM; in assay [6], 3.07 µM. The TGI is 6.22 µM in assay [7] and 5.44 µM in assay [8].

With `Cc1ccc(NC2=C(Sc3ccc(Cl)cc3)C(=O)N(Cc3ccccc3)C2=O)cc1Cl`, the GI50 is 12.3 µM in assay [1]; 10.4 µM in assay [2]; 5.75 µM in assay [3]; 6.03 µM in assay [4]; 4.82 µM in assay [5]; 3.45 µM in assay [6]. Moreover, the GI50 is 12.7 µM in assay [7] and 3.37 µM in assay [8]. The TGI in assay [1] was 29 µM; in assay [2], 29.7 µM; in assay [3] it was 39.8 µM; in assay [4], 28.9 µM; in assay [5], 18 µM; in assay [6], 16.9 µM. Further, the TGI in assay [7] worked out at 40.8 µM; in assay [8] it was 18.7 µM.

For the compound `Nc1ncc(-c2ccc(C(F)(F)F)cc2)c(NC2CCCCCC2)n1`, the GI50 was 29.4 µM in assay [1]; 25.3 µM in assay [2]; 42.7 µM in assay [3]; 47.4 µM in assay [4]; 16.7 µM in assay [5]; 52.5 µM in assay [6]. Further, the GI50 in assay [7] is 8.91 µM; in assay [8] it was 25.5 µM. The TGI in assay [1], in assay [2], in assay [3], in assay [4], in assay [5] and in assay [6] was > 100 µM throughout. The figures for the TGI in assay [7] and in assay [8] were 41.1 µM and > 100 µM, respectively.

On to `O=c1[nH]nc2c3c(cccc13)NC(CN1Cc3ccccc3C1)=N2`, for which the GI50 in assay [1] was 6.75 µM; in assay [2] it was 25.7 µM; in assay [3], 5.25 µM; in assay [4], 52.3 µM; in assay [5], 5.77 µM; in assay [6], 7.9 µM. The GI50 in assay [7] is 8.17 µM; in assay [8], 37.4 µM. In addition, the TGI in assay [1], in assay [2], in assay [3], in assay [4], in assay [5] and in assay [6] was > 100 µM each time. In addition, the TGI in assay [7] and in assay [8] was > 100 µM each time.

For `Cc1nc(NC(=S)Nc2ccc(F)cc2)sc1C(=O)NNC(=S)Nc1ccc(F)cc1`, the GI50 in assay [1] is 10.2 µM; in assay [2], 3.62 µM; in assay [3], 3.85 µM; in assay [4] it was 8.39 µM; in assay [5] it was 5.55 µM; in assay [6] it was 13 µM. The GI50 in assay [7] is 2.2 µM; in assay [8], 11.4 µM. Moreover, the TGI came out at 32.1 µM in assay [1]; 18.2 µM in assay [2]; 16.2 µM in assay [3]; 66.5 µM in assay [4]; 60 µM in assay [5]; 26.2 µM in assay [6]. Besides, the TGI turned out to be 6.9 µM in assay [7] and 38 µM in assay [8].

Turning to `CCC(C)/C=C(C)/C=C/C(=O)c1c(O)c(-c2ccc(O)cc2)c[nH]c1=O` (stereo not drawn), the GI50 in assay [1] is 3.86 µM; in assay [2] it was 3.53 µM; in assay [3] it was 3.04 µM; in assay [4], 5.43 µM; in assay [5], 4.13 µM; in assay [6], 3.3 µM. The GI50 in assay [7] was 3.45 µM; in assay [8], 2.49 µM. The TGI in assay [1] is 18.1 µM; in assay [2] it was 27.7 µM; in assay [3], 8.82 µM; in assay [4], 19.8 µM; in assay [5], 25.3 µM; in assay [6] it was 12.5 µM. Further, the TGI in assay [7] was found to be 17.6 µM; in assay [8], 9.56 µM.

As to `CO/N=C1/NC(=O)/C(=C/c2ccc3ncccc3c2)S1`, the GI50 in assay [1] was 16.3 µM; in assay [2], > 25 µM; in assay [3] it was 9.08 µM; in assay [4], 11.6 µM; in assay [5], > 25 µM; in assay [6], 8.27 µM. Further, the results for the GI50 in assay [7] and in assay [8] were > 25 µM and 4.06 µM, respectively. Moreover, the TGI in assay [1], in assay [2], in assay [3], in assay [4], in assay [5] and in assay [6] was > 25 µM in each case. Also, the TGI in assay [7] is > 25 µM; in assay [8], 17.5 µM.

In the case of `O=[N+]([O-])c1cc(Br)cc2c1[nH]c1ccc(Br)cc12`, the GI50 was 53.8 µM in assay [1]; 6.09 µM in assay [2]; 4.66 µM in assay [3]; 16.1 µM in assay [4]; 2.48 µM in assay [5]; 12.2 µM in assay [6]. The GI50 in assay [7] was 25.4 µM; in assay [8] it was 2.25 µM. Besides, the TGI is > 100 µM in assay [1]; 62.7 µM in assay [2]; 66.6 µM in assay [3]; 70.8 µM in assay [4]; 8.47 µM in assay [5]; 71.7 µM in assay [6]. Also, the TGI in assay [7] was > 100 µM; in assay [8], 20 µM.
